Assay results taken from patent US10815275B2, “Antimicrobial peptoids with improved selectivity and use thereof” (priority 2018, dated 2020).
In brackets after ≈: the same amount, converted by molar mass. Non-standard residues stand in square brackets, D forms with d. Residues, ends and D or L forms follow the SMILES beside them. Nspe = C[C@H](NCC(=O)O)c1ccccc1; Nlys = NCCCCNCC(=O)O

Key:
[1] = system: B. subtilis; type: cell-based; details: LB medium, 18 h
In short: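 B. subtilis or E. coli DH5α grown 18 h at 37 °C in LB, diluted to 2×10^5 CFU/mL and exposed to 2-fold serial peptoid dilutions for 18 h at 37 °C. Growth read by A600; MIC taken as lowest concentration fully suppressing growth, averaged over three independent experiments.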

[2] = system: S. aureus (ATCC25923); assay: MIC in multidrug-resistant bacteria panel, modified microdilution; type: cell-based; details: overnight, 37° C.
Procedure: (§1) Minimum inhibitory concentrations of the prepared peptoids for multidrug-resistant bacteria were measured using a modified microdilution method in Difco Mueller Hinton medium, and tests were done on a panel of bacterial pathogens which have resistance and tolerance against common antibiotics.
(§2) Briefly, a peptoid concentrate, which is 10-fold more concentrated than a final concentration, was serially diluted with a medium containing 0.2% bovine serum albumin and 0.01% acetic acid. 10 μL of the 10-fold concentrated peptoid concentrate and 90 μL of Muller Hinton medium were added to each well of a 96-well polypropylene microtitre plate. Bacteria were added to the plate so that a final concentration thereof was 2×10^5 CFU/mL, and then incubated overnight at a temperature of 37° C. The minimum inhibitory concentration was defined as a concentration at which no bacterial growth is observed.

[3] = system: E. coli (63103 ESBL); assay: as above; type: cell-based; details: overnight, 37° C.
Procedure: as §1, §2

[4] = system: S. epidermidis (ET-024 MRSA); assay: as above; type: cell-based; details: overnight, 37° C.
Procedure: as §1, §2

[5] = in vitro; type: cell-based; details: concentration indicating 50% survival, 24 h, MTS; read-out: LC50
In short: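 Human lung […] cells, 1.3×10^4 per well in DMEM with 10% FBS, incubated overnight, then treated 24 h with 2-fold serially diluted peptoid at 37° C, 5% CO2. MTS added for 4 hours, absorbance 490 nm; % survival relative to untreated control cells.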

[6] = system: E. coli; assay: Selectivity analysis, HD10 divided by MIC for E. coli; details: HD10 of Table 6 divided by MIC for E. coli ATCC25922
Procedure: In order to identify changes in selectivity depending on alteration of degree of folding in helical structure of peptoids, selectivity of each peptoid was calculated using the resultant values measured in the Experimental Examples 1 and 2. The selectivity was obtained by dividing the HD10 value by the minimum inhibitory concentration for E. coli (Table 8).

[7] = system: red blood cells; assay: Hemolytic activity on red blood cells; type: cell-based, mouse
In short: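 Washed mouse red blood cells (10% v/v in PBS, pH 7.4) incubated with peptoids for 1 h at 37 °C; released haemoglobin read at 540 nm. % hemolysis normalised to 0.1% Triton X-100 (100%) and PBS blank; HD10, HD50 derived, Hmax taken at 200 μM top concentration.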

C[C@@H](c1ccccc1)N(CC(N)=O)C(=O)CN(C(=O)CN(CCCCN)C(=O)CN(C(=O)CN(C(=O)CN(CCCCN)C(=O)CN(C(=O)CN(C(=O)CN(CCCCN)C(=O)CN(C(=O)CN(C(=O)CNCCCCN)[C@@H](C)c1ccccc1)[C@@H](C)c1ccccc1)[C@@H](C)c1ccccc1)[C@@H](C)c1ccccc1)[C@@H](C)c1ccccc1)[C@@H](C)c1ccccc1)[C@@H](C)c1ccccc1 [compound 1] (H-[Nlys][Nspe][Nspe][Nlys][Nspe][Nspe][Nlys][Nspe][Nspe][Nlys][Nspe][Nspe]-NH2)
MIC B. subtilis [1]: 0.8 µM (≈ 1.46 µg/mL)
minimum inhibitory concentration S. aureus (ATCC25923) [2]: 1.6
minimum inhibitory concentration E. coli (63103 ESBL) [3]: 1.6
minimum inhibitory concentration S. epidermidis (ET-024 MRSA) [4]: <0.8 to 0.8
CC50 at 24 h [5]: 8 µM
Selectivity [HD10/MIC (E. coli)] [6]: 0.4
Hmax (%) ([7]; Table 6, hemolysis rate at 200 μM): 113.4 ± 2.0%
HD10 ([7]; Table 6, peptoid concentration causing 10% hemolysis, highest concentration 200 μM, in µM (unit assumed)): 1.2
HD50 ([7]; Table 6, peptoid concentration causing 50% hemolysis, highest concentration 200 μM, in µM (unit assumed)): 42.8
Hmax (%) ([7]; Table 13, hemolysis rate at highest concentration 200 μM): 100%
